# In patent US9290459B1, “Substituted bicyclic dihydropyrimidinones and their use as inhibitors of neutrophil elastase activity” (Boehringer Ingelheim International GmbH, priority 2013, dated 2016):
# Target: Human neutrophil elastase (Homo sapiens (Human), UniProt P08246)
# Assay: Human Neutrophil Elastase Assay
# Type: biochemical
# Conditions: human neutrophil elastase, substrate MeOSuc-Ala-Ala-Pro-Val-AMC 250 μM, pH 7.5; read-out: IC50
# Chain of Human neutrophil elastase (P08246 30-247): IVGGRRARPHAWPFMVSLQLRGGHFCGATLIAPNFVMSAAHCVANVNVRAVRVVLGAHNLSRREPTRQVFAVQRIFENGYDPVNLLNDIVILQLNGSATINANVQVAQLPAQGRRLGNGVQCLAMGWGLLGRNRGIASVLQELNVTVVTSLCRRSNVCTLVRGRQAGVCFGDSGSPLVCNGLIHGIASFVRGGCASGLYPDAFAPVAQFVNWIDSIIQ
row,IC50 [nM],Structure (SMILES)
1,4.9,CNC(=O)N1C(=O)N(c2ccnc(C(F)(F)F)c2)C2=C(C(=O)CC2)C1c1ccc(C#N)cc1 (racemic) [Example 54.1]
2,1.5,N#Cc1ccc(C2C3=C(CCC3=O)N(c3ccnc(C(F)(F)F)c3)C(=O)N2C(=O)NC2CC2)cc1 (racemic) [Example 54.3]
3,2.4,CC(C)NC(=O)N1C(=O)N(c2ccnc(C(F)(F)F)c2)C2=C(C(=O)CC2)C1c1ccc(C#N)cc1 (racemic) [Example 54.4]
4,< 1,CNC(=O)N1C(=O)N(c2ccnc(C(F)(F)F)c2)C2=C(C(=O)CC2)C1c1ccc(C#N)cc1S(C)(=O)=O (racemic) [Example 56.1]
5,< 1,CCNC(=O)N1C(=O)N(c2ccnc(C(F)(F)F)c2)C2=C(C(=O)CC2)C1c1ccc(C#N)cc1S(C)(=O)=O (racemic) [Example 56.2]
6,8.1,"C[S+]([O-])c1cc(C#N)ccc1C1NC(=O)N(c2cccc(C(F)(F)F)c2)C2=C1C(=O)CC2 (single isomer, unassigned) [Example 17A, 4-(2,5-dioxo-1-(3-(trifluoromethyl)phenyl)-2,3,4,5,6,7-hexahydro-1H-cyclopenta[d]pyrimidin-4-yl)-3-(methylsulfinyl)benzonitrile]"
7,9.4,"C[S+]([O-])c1cc(C#N)ccc1C1NC(=O)N(c2cccc(C(F)(F)F)c2)C2=C1C(=O)CC2 (single isomer, unassigned) [Example 17B, 4-(2,5-dioxo-1-(3-(trifluoromethyl)phenyl)-2,3,4,5,6,7-hexahydro-1H-cyclopenta[d]pyrimidin-4-yl)-3-(methylsulfinyl)benzonitrile]"
8,42.1,COc1cc(C#N)ccc1C1NC(=O)N(c2cccc(C(F)(F)F)c2)C2=C1C(=O)CC2 (stereo not drawn) [Example 15.1]
9,28.6,Cc1cc(C#N)ccc1C1NC(=O)N(c2cccc(C(F)(F)F)c2)C2=C1C(=O)CC2 (stereo not drawn) [Example 15.2]
10,106,"N#Cc1ccc(C2NC(=O)N(c3cccc(C(F)(F)F)c3)C3=C2C(=O)CC3)nc1 (stereo not drawn) [Example 15.3, 6-(2,5-dioxo-1-(3-(trifluoromethyl)phenyl)-2,3,4,5,6,7-hexahydro-1H-cyclopenta[d]pyrimidin-4-yl)nicotinonitrile]"
11,66,CC1CC2=C(C1=O)C(c1ccc(C#N)cc1)NC(=O)N2c1cccc(C(F)(F)F)c1 (stereo not drawn) [Example 15.7]
12,1.7,CS(=O)(=O)c1cc(C#N)ccc1C1C2=C(CCC2=O)N(c2cccc(C(F)(F)F)c2)C(=O)N1CC1CCOCC1 (stereo not drawn) [Example 24.5]
13,< 1,CS(=O)(=O)c1cc(C#N)ccc1C1C2=C(CCC2=O)N(c2cccc(C(F)(F)F)c2)C(=O)N1CCC1CCOCC1 (stereo not drawn) [Example 24.6]

# Further lines, the molecule ahead of its results:
row,Structure (SMILES),IC50 [nM]
1,"COC(=O)CN1C(=O)N(c2cccc(C(F)(F)F)c2)C2=C(C(=O)CC2)C1c1ccc(C#N)cc1 (stereo not drawn) [Example 3, Methyl 2-(4-(4-Cyanophenyl)-2,5-dioxo-1-(3-(trifluoromethyl)phenyl)-6,7-dihydro-1H-cyclopenta[d]pyrimidin-3(2H,4H,5H)-yl)acetate]",17
2,"N#Cc1ccc(C2C3=C(CCC3=O)N(c3cccc(C(F)(F)F)c3)C(=O)N2CC(=O)O)cc1 (stereo not drawn) [Example 4, 2-(4-(4-Cyanophenyl)-2,5-dioxo-1-(3-(trifluoromethyl)phenyl)-6,7-dihydro-1H-cyclopenta[d]pyrimidin-3(2H,4H,5H)-yl)acetic acid]",10.9
3,"N#Cc1ccc(C2C3=C(CCC3=O)N(c3cccc(C(F)(F)F)c3)C(=O)N2CC(N)=O)cc1 (stereo not drawn) [Example 5, 2-(4-(4-Cyanophenyl)-2,5-dioxo-1-(3-(trifluoromethyl)phenyl)-6,7-dihydro-1H-cyclopenta[d]pyrimidin-3(2H,4H,5H)-yl)acetamide]",11.2
4,"N#Cc1ccc(C2C3=C(CCC3=O)N(c3cccc(C(F)(F)F)c3)C(=O)N2CC(=O)N2CCSCC2)cc1 (stereo not drawn) [Example 6, 4-(2,5-Dioxo-3-(2-oxo-2-thiomorpholinoethyl)-1-(3-(trifluoromethyl)phenyl)-2,3,4,5,6,7-hexahydro-1H-cyclopenta[d]pyrimidin-4-yl)benzonitrile]",3
5,"CN(C)C(=O)N1C(=O)N(c2cccc(C(F)(F)F)c2)C2=C(C(=O)CC2)C1c1ccc(C#N)cc1 (stereo not drawn) [Example 7, 4-(4-Cyanophenyl)-N,N-dimethyl-2,5-dioxo-1-(3-(trifluoromethyl)phenyl)-4,5,6,7-tetrahydro-1H-cyclopenta[d]pyrimidine-3(2H)-carboxamide]",124
6,"COC(=O)N1C(=O)N(c2cccc(C(F)(F)F)c2)C2=C(C(=O)CC2)C1c1ccc(C#N)cc1 (stereo not drawn) [Example 8, Methyl 4-(4-Cyanophenyl)-2,5-dioxo-1-(3-(trifluoromethyl)phenyl)-4,5,6,7-tetrahydro-1H-cyclopenta[d]pyrimidine-3(2H)-carboxylate]",4
7,"CS(=O)(=O)N1C(=O)N(c2cccc(C(F)(F)F)c2)C2=C(C(=O)CC2)C1c1ccc(C#N)cc1 (stereo not drawn) [Example 9, 4-(3-(Methylsulfonyl)-2,5-dioxo-1-(3-(trifluoromethyl)phenyl)-2,3,4,5,6,7-hexahydro-1H-cyclopenta[d]pyrimidin-4-yl)benzonitrile]",5.1
8,"CS(=O)(=O)N1C(=O)N(c2cccc(C(F)(F)F)c2)C2=C(C(=O)CC2)[C@@H]1c1ccc(C#N)cc1 [Example 9B, (S)-4-(3-(Methylsulfonyl)-2,5-dioxo-1-(3-(trifluoromethyl)phenyl)-2,3,4,5,6,7-hexahydro-1H-cyclopenta[d]pyrimidin-4-yl)benzonitrile]",3180
9,"CS(=O)(=O)c1cc(C#N)ccc1C1NC(=O)N(c2cccc(C(F)(F)F)c2)C2=C1C(=O)CC2 (stereo not drawn) [Example 10, 4-(2,5-Dioxo-1-(3-(trifluoromethyl)phenyl)-2,3,4,5,6,7-hexahydro-1H-cyclopenta[d]pyrimidin-4-yl)-3-(methylsulfonyl)benzonitrile]",5.8
10,"CS(=O)(=O)c1cc(C#N)ccc1[C@@H]1NC(=O)N(c2cccc(C(F)(F)F)c2)C2=C1C(=O)CC2 [Example 10B, (R)-4-(2,5-Dioxo-1-(3-(trifluoromethyl)phenyl)-2,3,4,5,6,7-hexahydro-1H-cyclopenta[d]pyrimidin-4-yl)-3-(methylsulfonyl)benzonitrile]",98.4
11,"N#Cc1ccc(C2NC(=O)N(c3cccc(C(F)F)c3)C3=C2C(=O)CC3)cc1 (stereo not drawn) [Example 11, 4-(1-(3-(Difluoromethyl)phenyl)-2,5-dioxo-2,3,4,5,6,7-hexahydro-1H-cyclopenta[d]-pyrimidin-4-yl)benzonitrile]",37.4
12,"N#Cc1ccc(C2NC(=O)N(c3cccc(C(F)(F)F)c3)C3=C2C(=O)CC3)cn1 (stereo not drawn) [Example 12, 5-(2,5-Dioxo-1-(3-(trifluoromethyl)phenyl)-2,3,4,5,6,7-hexahydro-1H-cyclopenta[d]-pyrimidin-4-yl)picolinonitrile]",201
13,"N#Cc1ccc(C2NC(=O)N(c3cccc(C(F)(F)F)c3)C3=C2C(=O)CC3)c(Br)c1 (stereo not drawn) [Example 13, 3-Bromo-4-(2,5-dioxo-1-(3-(trifluoromethyl)phenyl)-2,3,4,5,6,7-hexahydro-1H-cyclopenta[d]pyrimidin-4-yl)benzonitrile]",17.9
14,"CCS(=O)(=O)c1cc(C#N)ccc1[C@@H]1NC(=O)N(c2cccc(C(F)(F)F)c2)C2=C1C(=O)CC2 [Example 14B, (R)-4-(2,5-Dioxo-1-(3-(trifluoromethyl)phenyl)-2,3,4,5,6,7-hexahydro-1H-cyclopenta[d]pyrimidin-4-yl)-3-(ethylsulfonyl)benzonitrile]",33
15,"N#Cc1ccc(C2NC(=O)N(c3cccc(C(F)(F)F)c3)C3=C2C(=O)CC3)c(Cl)c1 (stereo not drawn) [Example 15, 3-Chloro-4-(2,5-dioxo-1-(3-(trifluoromethyl)phenyl)-2,3,4,5,6,7-hexahydro-1H-cyclopenta[d]pyrimidin-4-yl)benzonitrile]",30.1
16,"N#Cc1ccc([C@H]2NC(=O)N(c3cccc(C(F)(F)F)c3)C3=C2C(=O)CC3)nc1 [Example 15.3A, (S)-6-(2,5-Dioxo-1-(3-(trifluoromethyl)phenyl)-2,3,4,5,6,7-hexahydro-1H-cyclopenta[d]pyrimidin-4-yl)nicotinonitrile]",31.5
17,"N#Cc1ccc([C@@H]2NC(=O)N(c3cccc(C(F)(F)F)c3)C3=C2C(=O)CC3)nc1 [Example 15.3B, (R)-6-(2,5-Dioxo-1-(3-(trifluoromethyl)phenyl)-2,3,4,5,6,7-hexahydro-1H-cyclopenta[d]pyrimidin-4-yl)nicotinonitrile]",1720
18,"CS(=O)(=O)c1cc(C#N)ccc1[C@@H]1NC(=O)N(c2cccc(C(F)F)c2)C2=C1C(=O)CC2 [Example 15.4B, (R)-4-(1-(3-(Difluoromethyl)phenyl)-2,5-dioxo-2,3,4,5,6,7-hexahydro-1H-cyclopenta[d]pyrimidin-4-yl)-3-(methylsulfonyl)benzonitrile]",57.7
19,"N#Cc1ccc(C2NC(=O)N(c3ccnc(C(F)(F)F)c3)C3=C2C(=O)CC3)cc1 (stereo not drawn) [Example 15.5, 4-(2,5-Dioxo-1-(2-(tri-fluoromethyl)pyridin-4-yl)-2,3,4,5,6,7-hexahydro-1H-cyclopenta[d]pyrimidin-4-yl)benzonitrile]",110
20,"CSc1cc(C#N)ccc1C1NC(=O)N(c2cccc(C(F)(F)F)c2)C2=C1C(=O)CC2 (stereo not drawn) [Example 16, 4-(2,5-Dioxo-1-(3-(trifluoromethyl)phenyl)-2,3,4,5,6,7-hexahydro-1H-cyclopenta[d]-pyrimidin-4-yl)-3-(methylthio)benzonitrile]",14.9
21,"N#Cc1ccc(C2NC(=O)N(c3cccc(C(F)(F)F)c3)C3=C2C(=O)CC3)c(F)c1 (stereo not drawn) [Example 18, 4-(2,5-Dioxo-1-(3-(trifluoromethyl)phenyl)-2,3,4,5,6,7-hexahydro-1H-cyclopenta[d]-pyrimidin-4-yl)-3-fluorobenzonitrile]",44.2
22,"CC(C(=O)NCCO)N1C(=O)N(c2cccc(C(F)(F)F)c2)C2=C(C(=O)CC2)C1c1ccc(C#N)cc1 (stereo not drawn) [Example 20, 2-(4-(4-Cyanophenyl)-2,5-dioxo-1-(3-(trifluoromethyl)phenyl)-6,7-dihydro-1H-cyclopenta[d]pyrimidin-3(2H,4H,5H)-yl)-N-(2-hydroxyethyl)propanamide]",9.1
23,"CN1C(=O)N(c2cccc(C(F)F)c2)C2=C(C(=O)CC2)C1c1ccc(C#N)cc1 (stereo not drawn) [Example 26, 4-(1-(3-(Difluoromethyl)phenyl)-3-methyl-2,5-dioxo-2,3,4,5,6,7-hexahydro-1H-cyclopenta[d]pyrimidin-4-yl)benzonitrile]",9.4
